Experimental data from ChEMBL document CHEMBL1201862, “PubChem BioAssay data set” (2004).
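Five concentrations, 48 hours, 96-well plates. GI50 is the concentration that inhibits growth by half.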 Activity calls are given as the source filed them. Rule as the data show it: active = GI50 up to about 1.1 µM and inactive = higher.

Key:
Test in all cases: inhibition of tumour cell growth, NCI panel, 48 h
OVCAR-8 = test system: OVCAR-8
LOX IMVI = test system: LOX IMVI
SNB-75 = test system: SNB-75
HOP-92 = test system: HOP-92
NCI-H460 = test system: NCI-H460
SK-MEL-2 = test system: SK-MEL-2
OVCAR-5 = test system: OVCAR-5
Malme-3M = test system: Malme-3M
SF-539 = test system: SF-539
SK-MEL-5 = test system: SK-MEL-5
CCRF-CEM = test system: CCRF-CEM
SF-268 = test system: SF-268
UACC-62 = test system: UACC-62
HCT-116 = test system: HCT-116
HCT-15 = test system: HCT-15
CAKI-1 = test system: CAKI-1
OVCAR-3 = test system: OVCAR-3
HOP-62 = test system: HOP-62
EKVX = test system: EKVX

SMILES	GI50 (OVCAR-8)	GI50 (LOX IMVI)	GI50 (SNB-75)	GI50 (HOP-92)	GI50 (NCI-H460)	GI50 (SK-MEL-2)	GI50 (OVCAR-5)	GI50 (Malme-3M)	GI50 (SF-539)	GI50 (SK-MEL-5)	GI50 (CCRF-CEM)	GI50 (SF-268)	GI50 (UACC-62)	GI50 (HCT-116)	GI50 (HCT-15)	GI50 (CAKI-1)	GI50 (OVCAR-3)	GI50 (HOP-62)	GI50 (EKVX)
O=C1C(=O)N(c2cc(Cl)ccc2Cl)C(=O)C(=O)C1c1nc2ccccc2s1	> 100 µM (inactive)	> 100 µM (inactive)	49.4 µM (inactive)	24.4 µM (inactive)	> 100 µM (inactive)	> 100 µM (inactive)	> 100 µM (inactive)	> 100 µM (inactive)	> 100 µM (inactive)	> 100 µM (inactive)	62.4 µM (inactive)	86.5 µM (inactive)	> 100 µM (inactive)	66.5 µM (inactive)	> 100 µM	> 100 µM (inactive)	> 100 µM (inactive)	> 100 µM (inactive)	> 100 µM (inactive)
CC(C)(C)[Si](C)(C)O/N=C\c1cccc(O[Si](C)(C)C(C)(C)C)c1	20 µM (inactive)	19.2 µM (inactive)	16.7 µM (inactive)	15.5 µM (inactive)	17.7 µM (inactive)	17.9 µM (inactive)	20.1 µM (inactive)	42.4 µM (inactive)	21.9 µM (inactive)	17.8 µM (inactive)	19.3 µM (inactive)	18.3 µM (inactive)	16.7 µM (inactive)	18.6 µM (inactive)	19.2 µM	24.8 µM (inactive)	16.2 µM (inactive)	22.8 µM (inactive)	18.5 µM (inactive)
CC1C(=O)OC2CC[N+]3(CC(=O)c4ccc(Br)cc4)CC=C(COC(=O)C(C)(O)C1(C)O)C23 (configuration not stated)	37.5 µM (inactive)	> 375 µM (inactive)	> 375 µM (inactive)	> 299 µM (inactive)	> 375 µM (inactive)	> 375 µM (inactive)	> 375 µM (inactive)	> 375 µM (inactive)	> 375 µM (inactive)	> 375 µM (inactive)	> 375 µM (inactive)	> 375 µM (inactive)	> 375 µM (inactive)	> 375 µM (inactive)	> 375 µM	> 375 µM (inactive)	> 375 µM (inactive)	> 375 µM (inactive)	> 375 µM (inactive)
c1cc2c(cc1C1OCC3C(c4ccc5c(c4)OCO5)OCC13)OCO2 (configuration not stated)	85.3 µM (inactive)	73.1 µM (inactive)	50.8 µM (inactive)	69.7 µM (inactive)	75.3 µM (inactive)	98.2 µM (inactive)	55.6 µM (inactive)	61.9 µM (inactive)	> 100 µM (inactive)	28.4 µM (inactive)	32.3 µM (inactive)	> 100 µM (inactive)	50 µM (inactive)	51.5 µM (inactive)	50.6 µM	–	84.1 µM (inactive)	> 100 µM (inactive)	62.4 µM (inactive)
COc1cc2c[n+](C)c3c4cc(OC)c(OC(C)C)cc4ccc3c2cc1OC	35.4 µM (inactive)	46.5 µM (inactive)	44.9 µM (inactive)	73.6 µM (inactive)	75.3 µM (inactive)	20.1 µM (inactive)	69.7 µM (inactive)	29.4 µM (inactive)	> 100 µM (inactive)	23.4 µM (inactive)	56.2 µM (inactive)	47 µM (inactive)	37.3 µM (inactive)	> 100 µM (inactive)	> 100 µM	> 100 µM (inactive)	10.5 µM (inactive)	> 100 µM (inactive)	> 100 µM (inactive)
CCCCN/C(=N\C#N)N(Cc1ccccc1)Cc1ccccc1	37 µM (inactive)	15.5 µM (inactive)	31.5 µM (inactive)	17.6 µM (inactive)	58.5 µM (inactive)	15.2 µM (inactive)	23.5 µM (inactive)	37.2 µM (inactive)	22.2 µM (inactive)	13.3 µM (inactive)	16.7 µM (inactive)	38.1 µM (inactive)	15.4 µM (inactive)	20.8 µM (inactive)	16.3 µM	29.1 µM (inactive)	23.8 µM (inactive)	26.6 µM (inactive)	28.2 µM (inactive)
CN(C)CCCOc1ccc(/C=C2/CCC/C(=C/c3ccc(OCCCN(C)C)cc3)C2=O)cc1	3.08 µM (inactive)	1.51 µM (inactive)	1.28 µM (inactive)	1.16 µM (inactive)	2.07 µM (inactive)	2.03 µM (inactive)	0.239 µM (active)	1.78 µM (inactive)	1.6 µM (inactive)	2.23 µM (inactive)	0.824 µM (active)	2 µM (inactive)	1.91 µM (inactive)	1.37 µM (inactive)	0.995 µM	–	2.26 µM (inactive)	1.82 µM (inactive)	3.95 µM (inactive)
Cc1ccccc1NC(=O)C(=O)CC(=O)c1sc(-n2nc(-c3ccccc3)cc2-c2ccccc2)nc1C	> 100 µM (inactive)	> 100 µM (inactive)	> 100 µM (inactive)	> 100 µM (inactive)	> 100 µM (inactive)	> 100 µM (inactive)	> 100 µM (inactive)	> 100 µM (inactive)	> 100 µM (inactive)	–	> 100 µM (inactive)	> 100 µM (inactive)	> 100 µM (inactive)	> 100 µM (inactive)	> 100 µM	> 100 µM (inactive)	> 100 µM (inactive)	> 100 µM (inactive)	> 100 µM (inactive)
Cc1ccccc1C(C#N)C(=O)C(=O)Nc1cccc(Cl)c1 (configuration not stated)	> 100 µM (inactive)	19.1 µM (inactive)	> 100 µM (inactive)	> 100 µM (inactive)	61.5 µM (inactive)	> 100 µM (inactive)	> 100 µM (inactive)	> 100 µM (inactive)	> 100 µM (inactive)	> 100 µM (inactive)	39.4 µM (inactive)	> 100 µM (inactive)	> 100 µM (inactive)	> 100 µM (inactive)	> 100 µM	> 100 µM (inactive)	> 100 µM (inactive)	> 100 µM (inactive)	> 100 µM (inactive)
OCC(O)COc1c(Cl)cc(Cl)cc1Cl (configuration not stated)	> 100 µM (inactive)	> 41.3 µM (inactive)	> 100 µM (inactive)	> 100 µM (inactive)	> 100 µM (inactive)	> 100 µM (inactive)	> 100 µM (inactive)	> 100 µM (inactive)	> 100 µM (inactive)	> 100 µM (inactive)	> 41.8 µM (inactive)	> 100 µM (inactive)	> 100 µM (inactive)	> 74.3 µM (inactive)	> 100 µM	> 100 µM (inactive)	> 100 µM (inactive)	> 100 µM (inactive)	> 100 µM (inactive)
O=C(N/C(=C\c1cccc([N+](=O)[O-])c1)c1nc2c(O)nc(S)nc2[nH]1)c1ccccc1	> 100 µM (inactive)	> 100 µM (inactive)	> 100 µM (inactive)	> 100 µM (inactive)	> 100 µM (inactive)	> 100 µM (inactive)	> 100 µM (inactive)	> 100 µM (inactive)	> 100 µM (inactive)	> 100 µM (inactive)	> 100 µM (inactive)	48.2 µM (inactive)	> 100 µM (inactive)	> 100 µM (inactive)	> 100 µM	> 100 µM (inactive)	> 100 µM (inactive)	> 100 µM (inactive)	> 100 µM (inactive)
CCOC(=O)c1c(-c2ccc(OC)cc2)ccn1C	> 10 µM (inactive)	0.00227 µM (active)	> 10 µM (inactive)	> 10 µM (inactive)	> 10 µM (inactive)	> 10 µM (inactive)	> 10 µM (inactive)	> 10 µM (inactive)	0.0975 µM (active)	> 10 µM (inactive)	> 10 µM (inactive)	> 8.41 µM (inactive)	> 10 µM (inactive)	> 10 µM (inactive)	> 10 µM	> 10 µM (inactive)	> 10 µM (inactive)	> 10 µM (inactive)	> 10 µM (inactive)
COc1ccc(/C=C2\CCC(CCN(C)C)(C3=CCCC3)C2=O)cc1 (configuration not stated)	16.8 µM (inactive)	16.6 µM (inactive)	19 µM (inactive)	20.7 µM (inactive)	20.1 µM (inactive)	17.6 µM (inactive)	21.5 µM (inactive)	16 µM (inactive)	16.1 µM (inactive)	16.5 µM (inactive)	17.1 µM (inactive)	18.2 µM (inactive)	16.4 µM (inactive)	15.1 µM (inactive)	22.3 µM	10.7 µM (inactive)	19.1 µM (inactive)	18 µM (inactive)	14 µM (inactive)
CCC(O)(c1ccc(OC)cc1)C(c1ccc(OCc2ccccc2)cc1)c1ccc(OCc2ccccc2)cc1 (configuration not stated)	> 100 µM (inactive)	> 100 µM (inactive)	> 100 µM (inactive)	> 100 µM (inactive)	> 100 µM (inactive)	> 100 µM (inactive)	> 100 µM (inactive)	> 100 µM (inactive)	> 100 µM (inactive)	> 100 µM (inactive)	> 100 µM (inactive)	> 100 µM (inactive)	> 100 µM (inactive)	> 100 µM (inactive)	> 100 µM	> 100 µM (inactive)	> 100 µM (inactive)	> 100 µM (inactive)	> 100 µM (inactive)
CC1=Nc2c(ccc3c2C(=O)c2ccccc2C3=O)NC(c2ccncc2)C1 (configuration not stated)	8.55 µM (inactive)	34.8 µM (inactive)	5.96 µM (inactive)	> 10 µM (inactive)	> 10 µM (inactive)	> 10 µM (inactive)	95.1 µM (inactive)	> 10 µM (inactive)	> 10 µM (inactive)	> 100 µM (inactive)	0.515 µM (active)	> 10 µM (inactive)	62.4 µM (inactive)	41.5 µM (inactive)	9.93 µM	7.98 µM (inactive)	> 10 µM (inactive)	35.1 µM (inactive)	> 10 µM (inactive)
